Source: patent publication US20250064967A1, “COMBINATION OF ANTIBODY-DRUG CONJUGATE AND ATR INHIBITOR” (AstraZeneca UK Limited, priority 2021, published 2025)

B1: DS-1062: anti-TROP2 antibody-drug conjugate; exatecan-derivative drug-linker conjugated to the anti-TROP2 antibody via a thioether bond; DAR ~4 (conjugate, chains of the INN, looked up)
VH: QVQLVQSGAEVKKPGASVKVSCKASGYTFTTAGMQWVRQAPGQGLEWMGWINTHSGVPKYAEDFKGRVTISADTSTSTAYLQLSSLKSEDTAVYYCARSGFGSSYWYFDVWGQGTLVTVSS
VL: DIQMTQSPSSLSASVGDRVTITCKASQDVSTAVAWYQQKPGKAPKLLIYSASYRYTGVPSRFSGSGSGTDFTLTISSLQPEDFAVYYCQQHYITPLTFGQGTKLEIK
modifications: exatecan-derivative drug-linker, DAR ~4

How the values were obtained:
Parameters in all cases: species or system Female Nude mice
[1] = system: N87-DS-1062 resistant tumor cell xenograft (gastric cancer cell line); assay: Antitumor test in vivo, N87 DS-1062 resistant model (Example 9); conditions: N87-DS-1062 resistant xenograft; DS-1062 10 mg/kg IV single dose; AZD6738 25 mg/kg PO BID Day 1-7
Experimental: Female Nude mice (Charles River) aged 5-8 weeks were used, following 7 days acclimatisation before entry into the study. 5×10^6 N87-DS-1062 resistant tumor cells (gastric cancer cell line) (1:1 in Matrigel) were implanted subcutaneously onto the flank of the female Nude mice. When tumors reached approximately 250 mm^3, similar-sized tumors were randomly assigned to treatment groups as shown in Table 13:
The dose of compound for each animal was calculated based on the individual body weight on the day of dosing. DS-1062 and AZD6738 were dosed on the same day, with DS-1062 being administered approximately 5 hour post the PO dose of AZD6738. DS-1062 was administered as a single dose at 10 mg/kg on day 1, and AZD6738 was administered at 25 mg/kg BID for 7 days.
(§1) The dosing solution for DS-1062 was prepared on the day of dosing by diluting the DS-1062 stock (20.1 mg/ml) in 25 mM histidine buffer, 9% sucrose (pH5.5) to 2 mg/ml for 10 mg/kg dosing solution. The dosing solution was mixed well using a pipette before administration via IV injection at a dosing volume of 5 ml/kg.
DMSO (10% of the total vehicle volume) was added to the compound and mixed well with a pellet pestle. Sonication for approximately 5 minutes was required to fully dissolve the compound. Following which, propylene glycol (40% of the total vehicle volume) was added and mixed well using a magnetic stirrer. […]

[2] = system: NCI-N87 xenograft (gastric cancer cell line); assay: Antitumor test in vivo, dose optimization, NCI-N87 xenograft model (Example 7); conditions: DS-1062 10 mg/kg IV single dose, AZD6738 25 mg/kg PO BID Day 1-14
Experimental: Female Nude mice (Envigo) aged 5-8 weeks were used, following 7 days acclimatisation before entry into the study. 5×10^6 NCI-N87 tumor cells (gastric cancer cell line) (1:1 in Matrigel) were implanted subcutaneously onto the flank of the female Nude mice. When tumors reached approximately 250 mm^3, similar-sized tumors were randomly assigned to treatment groups as shown in Table 9:
The dose of compound for each animal was calculated based on the individual body weight on the day of dosing. DS-1062 was administered as a single dose at 10 mg/kg on day 1, and AZD6738 was administered at 25 mg/kg BID as listed in Table 9.
The dosing solution for DS-1062 was prepared on the day of dosing by diluting the DS-1062 stock (20.1 mg/ml) in 25 mM histidine buffer, 9% sucrose (pH5.5) to 2 mg/ml for 10 mg/kg dosing solution. Each dosing solution was mixed well using a pipette before administration via IV injection at a dosing volume of 5 ml/kg.
DMSO (10% of the total vehicle volume) was added to the compound and mixed well with a pellet pestle. Sonication for approximately 5 minutes was required to fully dissolve the compound. […]
(§2) Tumor growth inhibition (TGI) was calculated as follows:
(§3) Statistical significance was evaluated using one-tailed t-test of (log(relative tumor volume)=log(final vol/start vol)) at the day of final measure, comparing to vehicle control. […]

[3] = system: CTG-3718 xenograft (ovarian PDX, relapsed on talazoparib); assay: Antitumor test in vivo, CTG3718 ovarian patient derived xenograft model (Example 8); conditions: CTG-3718 ovarian PDX; DS-1062 10 mg/kg IV single dose; AZD6738 25 mg/kg PO BID Day 1-14
Description: (§4) Female Nude mice (Envigo) aged 5-8 weeks were used, following 7 days acclimatisation before entry into the study. The human patient-derived xenograft (PDX) model, CTG-3718, was established from fragments of freshly resected tumor of a ovarian cancer patient whom relapsed on treatment with PARP inhibitor talazoparib. This PDX was obtained in accordance with appropriate consent procedures. This ovarian PDX model was subcutaneously passaged in vivo as fragments from animal to animal in nude mice. When tumors reached approximately 250 mm^3, similar-sized tumors were randomly assigned to treatment groups as shown in Table 11:
The dose of compound for each animal was calculated based on the individual body weight on the day of dosing. DS-1062 and AZD6738 were dosed on the same day, with DS-1062 being administered approximately 5 hour post the PO dose of AZD6738. DS-1062 was administered as a single dose at 10 mg/kg on day 1, and AZD6738 was administered at 25 mg/kg BID for 14 days.
as §1
DMSO (10% of the total vehicle volume) was added to the compound and mixed well with a pellet pestle. […]

[4] = system: NCI-N87 xenograft (gastric cancer cell line); assay: Antitumor test in vivo, NCI-N87 xenograft model (Example 4); conditions: DS-1062 10 mg/kg IV single dose, AZD6738 25 mg/kg PO QD 14 days
Experimental: Female Nude mice (Charles River) aged 5-8 weeks were used, following 7 days acclimatisation before entry into the study. 5×10^6 NCI-N87 tumor cells (gastric cancer cell line) (1:1 in Matrigel) were implanted subcutaneously onto the flank of the female Nude mice. When tumors reached approximately 250 mm^3, similar-sized tumors were randomly assigned to treatment groups as shown in Table 4:
(§5) The dose of compound for each animal was calculated based on the individual body weight on the day of dosing. DS-1062 and AZD6738 were dosed on the same day, with DS-1062 being administered approximately 5 hour post the PO dose of AZD6738. DS-1062 was administered as a single dose at 10 mg/kg on day 1, and AZD6738 was administered at 25 mg/kg QD for 14 days. Duration of dosing was for 14 days.
The dosing solutions for DS-1062 were prepared on the day of dosing by diluting the DS-1062 stock (20.1 mg/ml) in 25 mM histidine buffer, 9% sucrose (pH5.5) to 0.6 mg/ml, and 2 mg/ml for the 3 mg/kg and 10 mg/kg dosing solutions, respectively. Each dosing solution was mixed well using a pipette before administration via IV injection at a dosing volume of 5 ml/kg. […]
as §2, §3

[5] = system: CTG-3303 xenograft (TNBC PDX, relapsed on talazoparib); assay: Antitumor test in vivo, TNBC patient derived xenograft model CTG-3303 (Example 5); conditions: CTG-3303 TNBC PDX; for TGI % day 46: DS-1062 10 mg/kg IV single dose, AZD6738 25 mg/kg PO QD 14 days; for percentage of mice achieving a complete response (tumor volume=0 mm^3): day 93 post treatment, 8 mice per group, DS-1062 10 mg/kg, AZD6738 25 mg/kg QD
Description: as §4, with “mice (Charles River)” for “mice (Envigo)”, “model, CTG-3303,” for “model, CTG-3718,”, “a triple negative breast” for “a ovarian”, “cancer (TNBC)” for “cancer”, “This TNBC” for “This ovarian”, “Table 6:” for “Table 11:”
as §5
The dosing solutions for DS-1062 were prepared on the day of dosing by diluting the DS-1062 stock (20.1 mg/ml) in 25 mM histidine buffer, 9% sucrose (pH5.5) to 0.6 mg/ml, and 2 mg/ml for the 3 mg/kg and 10 mg/kg dosing solutions, respectively. Each dosing solution was mixed well using a pipette before administration via IV injection at a dosing volume of 5 ml/kg.
DMSO (10% of the total vehicle volume) was added to the compound and mixed well with a pellet pestle. Sonication for approximately 5 minutes was required to fully dissolve the compound. Following which, propylene glycol (40% of the total vehicle volume) was added and mixed well using a magnetic stirrer. A volume of 10 ml of sterile water was added to the glass wheaton vial to rinse any remaining compound from the vial then transferred to the glass bottle. The remaining volume of sterile water in total (50% of the final vehicle volume) was added to the glass bottle and mixed well using a magnetic stirrer. The dosing solution was protected from light and kept at room temperature for up to 7 days being continually mixed. The final dosing matrix for 25 mg/kg AZD6738 was a clear solution with a faint yellow hue.
Values shown are geometric mean±SEM; n=8 for all treatment groups. The mice which had reached the humane endpoint (e.g. large tumor burden) during the study were removed from the group and the remaining mice were used for the calculation of the TGI.

Row | Molecule | TGI % day 21 [1] [%] | TGI % day 42 [2] [%] | TGI % day 22 [3] [%] | TGI % day 33 [4] [%] | TGI % day 46 [5] [%] | percentage of mice achieving a complete response (tumor volume=0 mm^3) [5] [%]
1 | C[C@@H]1COCCN1c1cc(C2([S@](C)(=N)=O)CC2)nc(-c2ccnc3[nH]ccc23)n1 [AZD6738, 4-{4-[(3R)-3-Methylmorpholin-4-yl]-6-[1-((R)-S-methylsulfonimidoyl)cyclopropyl]pyrimidin-2-yl}-1H-pyrrolo[2,3-b]pyridine] | −9.8 | 23.7 | −25.7 | 30.1 | 2.3 | 0
2 | B1 | 0.77 | 74.8 | 69.8 | 84.1 | 88.2 | 0
